Measured values reported in patent publication US20060002989A1, “Formulations of sumatriptan for absorption across biological membranes, and methods of making and using the same” (priority 2004, published 2006).
Like-named read-outs stand apart in the source and are kept apart here.

Tested on: pig buccal membrane
Assay: Trans-buccal absorption across pig buccal epithelial membrane in side-by-side diffusion cells
Conditions: for Steady-state flux, Fs: pig, 6 h
Description: In a side-by-side diffusion experiment, there exists a reservoir on each side of the test biological membrane. […] The steady state flux of absorption, Fs, is calculated by the formula, Fs=(dQ/dt)/A=(dC/dt)×(V/A), wherein Q is the amount of drug permeated, C is the concentration of the drug, A is the permeation area, V is the chamber volume in a side-by-side diffusion cell, and t is the time period over which the drug permeation is monitored. Fs can be determined from the slope of the line attained from plotting the cumulative amount of drug permeated per unit area as a function of time.
Freshly prepared buccal tissue from pigs was used to prepare the buccal epithelial membrane. A dermatometer was used to obtain the buccal epithelial membrane by separating it from the underlying connective tissue. The buccal membranes were used within 3-4 hours of removal of buccal tissue from the pigs.
The buccal epithelial membrane was mounted between side-by-side diffusion cells. The exposed area of the buccal membrane was approximately 0.64 cm^2. […] The final volume of the liquid in the donor-side was 3.5 ml and the volume in the receptor-side was 3.5 ml.
The diffusion system was maintained at 37° C. throughout the experiment. At predetermined intervals over a period of 6 hours, 150 μl of the solution from the receptor-side was withdrawn for HPLC analysis. The receptor-side was refilled with the same volume (150 μl) of KRB solution.
HPLC analysis of the solution withdrawn from the receptor-side was performed using a Waters 2695 separation module HPLC system equipped with a reverse phase C18 column (150 mm×3.9 mm ID, 5 μm) (Waters Corp., Milford, Mass.). The mobile phase was 88% phosphate buffer (0.05 M NH4H2PO4/H3PO4, pH 3.3) and 12% acetonitrile. […] The software used for HPLC assay data analysis was Millenium 32 (Waters Corp., Milford, Mass.).
Microsoft Excel 2000 was used to calculate the steady state flux value of the absorption of the drug across the buccal membrane. The steady state flux (Fs)=(dQ/dt)/A=(dC/dt)×(V/A), wherein Q is the amount of drug permeated, C is concentration of the drug, A is the permeation area, V is the chamber volume, and t is the time period over which the drug permeation is monitored.
The receptor-side contained 3.5 ml of KRB solution.

Compound | effect of absorption enhancer on permeation of sumatriptan succinate across the buccal membrane | effect of absorption enhancer on permeation of sumatriptan succinate across the buccal membrane (result in words) | also measured
CNS(=O)(=O)Cc1ccc2[nH]cc(CCN(C)C)c2c1 [Base alone, 3-[2-(dimethylamino)ethyl]-N-methyl-indole-5-methanesulphonamide, reference compound] |  |  | effect of absorption enhancers on absorption of sumatriptan base: not significantly enhanced; Steady-state flux, Fs (6.8 mM): 1.6 ± 1.5 ng/cm^2/min
CNS(=O)(=O)Cc1ccc2[nH]cc(CCN(C)C)c2c1.O=C(O)CCC(=O)O [Salt (SS) alone, sumatriptan succinate, reference compound] |  |  | Steady-state flux, Fs (12 mM): 6.0 ± 6.6 ng/cm^2/min
CCCCCCCCCCCC(=O)O [lauric acid] | only minor enhancing effects |  | 
CCCCCCCCCC(=O)[O-].[Na+] [sodium caprate] |  | enhanced the permeation | effect of absorption enhancer on permeation of sumatriptan succinate across the buccal membrane (result in words, listed as Sodium caprate): most dramatic effect
CCCCCCCC(=O)[O-].[Na+] [sodium caprylate] |  | enhanced the permeation | 
CCCCCCCCCCCC(=O)[O-].[Na+] [sodium laurate] |  | enhanced the permeation | 
CCCCCCCCCCCCOS(=O)(=O)[O-].[Na+] [sodium lauryl sulfate (SLS), sodium lauryl sulfate] |  | enhanced the permeation | 

The next lines start with results.

effect of absorption enhancer on permeation of sumatriptan succinate across the buccal membrane | Compound | effect of absorption enhancer on permeation of sumatriptan succinate across the buccal membrane (result in words) | also measured
only minor enhancing effects | C[C@H](CCC(=O)NCC(=O)[O-])[C@H]1CC[C@H]2[C@@H]3[C@H](O)C[C@@H]4C[C@H](O)CC[C@]4(C)[C@H]3C[C@H](O)[C@]12C.[Na+] [sodium glycocholate] |  | 
only minor enhancing effects | lysolecithin |  | 
